The source of these data is patent US20090253704A1, “PYRROLOTRIAZINONE DERIVATIVES FOR USE AS STEAROYL CoA DESATURASE INHIBITORS” (priority 2008, published 2009).

The experiment concerns the target T1, Stearoyl-CoA desaturase (SCD) (Rattus norvegicus, UniProt P07308).
T1 construct: from tissue; host or cells: liver microsomes of male Sprague Dawley rats, SCD induced by carbohydrate-rich diet
T1 sequence (P07308 1-358): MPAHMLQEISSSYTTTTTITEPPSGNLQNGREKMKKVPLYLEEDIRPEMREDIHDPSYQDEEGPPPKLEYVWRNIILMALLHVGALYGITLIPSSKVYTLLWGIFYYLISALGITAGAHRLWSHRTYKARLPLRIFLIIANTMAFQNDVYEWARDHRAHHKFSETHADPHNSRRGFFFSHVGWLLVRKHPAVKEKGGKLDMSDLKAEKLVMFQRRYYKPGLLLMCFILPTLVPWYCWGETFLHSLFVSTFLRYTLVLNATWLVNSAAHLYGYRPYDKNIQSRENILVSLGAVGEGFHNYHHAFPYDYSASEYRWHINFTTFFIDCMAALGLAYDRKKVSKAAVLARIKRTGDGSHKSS
Kind of experiment: SCD assay in rat liver microsomes ([3H]stearoyl CoA desaturation, adapted from Talamo and Bloch). Format: biochemical. To be noted: rat liver microsomes 0.2 mg/ml final, 30 min preincubation, 45 min reaction at room temperature. From the text:
The identification of compounds of the invention as SCD inhibitors was readily accomplished using the SCD enzyme and microsomal assay procedure described in Talamo and Bloch (1969) Analytical Biochemistry 29:300-304.
The rat liver microsomes were collected according to the procedure described in Ozols (1990) Methods Enzm, 182:225.
Male Spraque Dawley Rats were placed on regimented fasting protocol for one week to stimulate SCD enzymatic activity. 48-hour periods were alternated between feeding and fasting to induce and down-regulate SCD activity with SCD activity being induced via carbohydrate rich diet prior to liver perfusion and collection.
The rats were anesthetized with Isoflurane inhalation anesthetic, the liver perfused with cold phosphate buffered saline (PBS), weighed, and chilled in cold homogenization buffer (250 mM sucrose, 10 mM Tris, 1 mM EDTA, pH 7.6).
The livers were finely minced and placed in homogenization tube. Homogenization buffer (40 mL) was added to the homogenization tube and the liver homogenized and centrifuged in a pre-chilled […] for 10 min at 4° C.
Following centrifugation, the supernatant was collected and the pellet removed and discarded. The supernatant was centrifuge at 10,000 G for 35 minutes. Following centrifugation, the supernatant was collect and the pellet discarded. The supernatant was then centrifuged in a pre-chilled 45-Ti rotor at 130,000 G (41,000 RPM) for 90 minutes at 4° C.
The supernatant was then aspirated off and the collected microsomal pellet washed in 25 mL of Glycerol PBS (1×PBS 7.4, 20% Glycerol) and resuspended in 4-5 volumes of Glycerol PBS.
The protein concentration of the microsomal preparation was determined by BCA assay (Pierce) and the microsomes were aliquoted and stored at −80° C.
Biobeads were ground to a smaller size in a mortar and pestle and resuspended in 3.6% TCA. The beads were then filtered through […] mesh.
SCD was determined in the desaturase assay buffer. This assay buffer contained 0.1 M Tris buffer, pH 7.2, 2 mM NADH, 4.8 mM ATP, 0.5 mM CoA, 4.8 mM MgCl2, and 0.1% BSA.
The Procedure for the SCD Assay (Adapted from Talamo and Bloch (1969) Analytical Biochemistry 29:300-304)
1 μl of each compound of Formula I was added to an assay plate by a low volume (0.5-10 μL) multichannel pipette. A DMSO control was also prepared. The microsomes were quickly thawed and added to assay buffer so that a concentration of 0.4 mg/ml was achieved (0.2 mg/ml assay final). 50 μl of the microsome suspension in assay buffer was then added into each well in the compound assay plate, the plate was covered, and the microsomes preincubated with the compounds for 30 minutes on the orbital shaker, 50-75 rpm, at room temperature.
After preincubation, the reaction was initiated by the addition of 50 μl of substrate solution (20 μM Stearoyl CoA, [3H]Stearoyl CoA, 74 nCi) to the preincubated microsomes/compound suspensions in MilliQ (Millipore) H2O. The reaction mixtures were then incubated for 45 minutes on the orbital shaker at 50-75 rpm at room temperature.
The reaction was terminated by the addition of 10 μl of 21% trichloroacetic acid (TCA) to the reaction mixture followed incubation on the orbital shaker for 30 minutes at 50-75 rpm at room temperature followed by centrifugation for 5 minutes at 3700 rpm.
50 μl of a 6% Bio-Bead suspension in H2O was added to the reaction mixture and the assay plate was sealed. The Bio-Bead mixture was incubated on the orbital shaker for 1 hour, 100-150 rpm at room temperature, and then the mixture was centrifuged at 2000 g for 5 minutes to pellet the Bio-Beads.
25 μl of the supernatant was harvested from each well and transferred to a detection plate. 100 μl of OptiPhase SuperMix scintillation cocktail (containing sufficient NaOH to neutralize the TCA) was added and the solutions mixed by vigorous shaking (300-400 rpm) for 5 minutes at room temperature.
(Liver microsomes are vesicles of endoplasmic reticulum, rich in cytochrome P450 enzymes.)

Molecules are shown by their SMILES.

As a reminder, the IC50 is the concentration at which inhibition is half-maximal. As for `O=C(Nc1cc2c(=O)n(Cc3ccc(Cl)c(Cl)c3)cnn2c1)C(O)CO` (stereo not drawn) [N-(3-(3,4-dichlorobenzyl)-4-oxo-3,4-dihydropyrrolo[1,2-f][1,2,4]triazin-6-yl)-2,3-dihydroxypropanamide], inhibition was half-maximal at 0.01 µM (IC50). For the molecule `O=C(CO)Nc1cc2c(=O)n(CCOc3ccccc3Cl)cnn2c1` [N-(3-(2-(2-chlorophenoxy)ethyl)-4-oxo-3,4-dihydropyrrolo[1,2-f][1,2,4]triazin-6-yl)-2-hydroxyacetamide], the IC50 turned out to be 5.6 µM. To `CCCCCCC(=O)Nc1cc2c(=O)n(Cc3ccc(Cl)c(Cl)c3)cnn2c1` [N-(3-(3,4-dichlorobenzyl)-4-oxo-3,4-dihydropyrrolo[1,2-f][1,2,4]triazin-6-yl)heptanamide] belongs 27 µM; to `O=C(CO)Nc1cc2c(=O)n(Cc3ccc(Cl)c(Cl)c3)cnn2c1` [N-(3-(3,4-dichlorobenzyl)-4-oxo-3,4-dihydropyrrolo[1,2-f][1,2,4]triazin-6-yl)-2-hydroxyacetamide], 0.25 µM. `O=C(Nc1cc2c(=O)n(Cc3ccc(Cl)c(Cl)c3)cnn2c1)OCc1ccccc1` [benzyl 3-(3,4-dichlorobenzyl)-4-oxo-3,4-dihydropyrrolo[1,2-f][1,2,4]triazin-6-ylcarbamate]: the half-inhibitory concentration (IC50) stood at 1.6 µM. Against the preceding molecule, the IC50 is about 6.4-fold higher.

For `O=C(CO)Nc1cc2c(=O)n(CCCOc3cc(Cl)ccc3Cl)cnn2c1` [N-(3-(3-(2,5-dichlorophenoxy)propyl)-4-oxo-3,4-dihydropyrrolo[1,2-f][1,2,4]triazin-6-yl)-2-hydroxyacetamide], half-maximal inhibition (IC50) required 0.24 µM.

Molecule `O=C(CO)Nc1cc2c(=O)n(Cc3ccc(Cl)c(C(F)(F)F)c3)cnn2c1` [N-(3-(4-chloro-3-(trifluoromethyl)benzyl)-4-oxo-3,4-dihydropyrrolo[1,2-f][1,2,4]triazin-6-yl)-2-hydroxyacetamide] returned an IC50 of 0.32 µM. In turn, `O=C(Nc1cc2c(=O)n(CCc3ccc(Cl)cc3)cnn2c1)C(O)CO` (stereo not drawn) [N-(3-(4-chlorophenethyl)-4-oxo-3,4-dihydropyrrolo[1,2-f][1,2,4]triazin-6-yl)-2,3-dihydroxypropanamide] displayed a half-maximal inhibitory concentration (IC50) of 0.83 µM. On to `O=C(CO)Nc1cc2c(=O)n(CCc3ccc(Cl)cc3)cnn2c1` [N-(3-(4-chlorophenethyl)-4-oxo-3,4-dihydropyrrolo[1,2-f][1,2,4]triazin-6-yl)-2-hydroxyacetamide], for which the IC50 stood at 14 µM.
